Structures can show the parent of a compound that is named as a salt.
How the values were obtained:
[1] = Solubility in water at room temperature; assay type: physicochemical
[2] = Wavelength at the maximum UV absorption and molar absorption coefficient (UV spectrometer, water/alcohol solution); assay type: physicochemical; details: for Amide-containing guanidine derivative: Mol.Abs.Coef. (ε) / Starting UV absorbent: Mol.Abs.Coef. (ε): in M-1cm-1 (unit assumed); for Amide-containing guanidine derivative: Wavelength / Starting UV absorbent: Wavelength: UV absorption maximum
Experimental: The wavelength showing the maximum absorption was measured by means of a UV spectrometer in a water and/or alcohol solution of R^1COOH or its salt as mentioned in detail in the Examples.
Test 1. Wavelength at the Maximum Absorption

Which “Solubility of amide-containing guanidine derivative” value [1] does the source give for `COc1ccc(C=CC(=O)N[C@@H](CCCNC(=N)N)C(=O)O)cc1` [Compound 3 (HCl salt)] here?
The value was greater than 15 wt %.

With `CCCCCCCCCCCCOc1ccc(C=CC(=O)NCCCCNC(=N)N)cc1.CCCCCCCCCCCCOc1ccc(C=CC(=O)NCCCCNC(=N)N)cc1.O=S(=O)(O)O` [Compound 4, N-paradodecyloxycinnamoylamidobutylguanidine ½ sulfate] as the molecule, how does the “Amide-containing guanidine derivative: Mol.Abs.Coef. (ε)” value ([2]; 40% isopropyl alcohol solution) read?
The value was 24122.

What about the “Amide-containing guanidine derivative: Wavelength” value ([2]; 40% isopropyl alcohol solution) of the same molecule?
Its value is 307 nm.

For `O=C(O)C=Cc1ccccc1` [Starting UV absorbent of Prep.1, cinnamic acid, reference compound], which “Starting UV absorbent: Mol.Abs.Coef. (ε)” value ([2]; 30% methanol solution) is on record?
Its value is 18661.

And the “Starting UV absorbent: Wavelength” value ([2]; 30% methanol solution)?
The value was 279 nm.

What does the source list for `N=C(N)NCCCCNC(=O)C=Cc1ccccc1.N=C(N)NCCCCNC(=O)C=Cc1ccccc1.O=S(=O)(O)O` [Compound 1, N-cinnamoylamidobutylguanidine ½ sulfate]?
Amide-containing guanidine derivative: Mol.Abs.Coef. (ε) ([2]; 30% methanol solution): 21885; Amide-containing guanidine derivative: Wavelength ([2]; 30% methanol solution): 280 nm

What does the source list for `CCCCCCCCCCCCOc1ccc(/C=C/C(=O)N[C@@H](CCCNC(=N)N)C(=O)O)cc1` [Compound 6, N-paradodecyloxycinnamoylarginine]?
Amide-containing guanidine derivative: Mol.Abs.Coef. (ε) ([2]; 40% isopropyl alcohol solution): 25740; Amide-containing guanidine derivative: Wavelength ([2]; 40% isopropyl alcohol solution): 308 nm

For `COc1ccc(C=CC(=O)N[C@@H](CCCNC(=N)N)C(=O)O)cc1` [Compound 3, N-paramethoxycinnamoylarginine], which “Amide-containing guanidine derivative: Mol.Abs.Coef. (ε)” value ([2]; 30% methanol solution) is on record?
The value was 24977.

And the “Amide-containing guanidine derivative: Wavelength” value ([2]; 30% methanol solution)?
The value was 307 nm.

For `CCCCCCCCCCCCOc1ccc(C=CC(=O)NCCCCNC(=N)N)cc1.Cl` [Compound 5, N-paradodecyloxycinnamoylamidobutylguanidine hydrochloride], which “Solubility of amide-containing guanidine derivative” value [1] is on record?
Its value is greater than 7 wt %.

With `COc1ccc(C=CC(=O)O)cc1` [Starting UV absorbent of Prep.3, p-methoxycinnamic acid, reference compound] as the molecule, how does the “Starting UV absorbent: Mol.Abs.Coef. (ε)” value ([2]; 30% methanol solution) read?
The value was 20845.

And the “Starting UV absorbent: Wavelength” value ([2]; 30% methanol solution)?
The value was 307 nm.

And the “Solubility of starting UV absorbent” value [1]?
Its value is less than 0.1 wt %.

What does the source list for `CCCCCCCCCCCCOc1ccc(C=CC(=O)O)cc1` [Starting UV absorbent of Prep.4, p-dodecyloxycinnamic acid, reference compound]?
Starting UV absorbent: Mol.Abs.Coef. (ε) ([2]; 40% isopropyl alcohol solution): 21246; Starting UV absorbent: Wavelength ([2]; 40% isopropyl alcohol solution): 309 nm; Solubility of starting UV absorbent [1]: <0.01 wt %

For `Cl.N=C(N)NCCCCNC(=O)C=Cc1ccccc1` [Compound 2, N-cinnamoylamidobutylguanidine hydrochloride], which “Solubility of amide-containing guanidine derivative” value [1] is on record?
Its value is greater than 15 wt %.
